Measured values taken from EP1660440B1, “ACYLOXYALKYL CARBAMATE PRODRUGS, METHODS OF SYNTHESIS AND USE” (priority 2003, dated 2005).
Read-outs that look alike come from different tables or passages of the source.

What was measured:
Pancreatin = Pancreatin stability; type: in vitro ADME, porcine; settings: 1 % (w/v) pancreatin, 5 µM, pH 7.5, 37 °C, after 60 min
Experimental: (§1) Pancreatin Stability: Stability studies were conducted by incubating prodrug (5 µM) with 1 % (w/v) pancreatin (Sigma, P-1625, from porcine pancreas) in 0.025 M Tris buffer containing 0.5 M NaCl (pH 7.5) at 37 °C for 60 min. The reaction was stopped by addition of 2 volumes of methanol. After centrifugation at 14,000 rpm for 10 min, the supernatant was removed and analyzed by LC/MS/MS.

[1] = not given; remark: listed apart in the source
[2] = not given; remark: listed apart in the source
[3] = not given; remark: listed apart in the source
[4] = not given; remark: listed apart in the source
[5] = 5 µM
Experimental: (§2) For stability studies, prodrug (5 µM) was incubated in Caco-2 homogenate S9 fraction (0.5 mg protein per mL) for 60 min at 37°C. Concentrations of intact prodrug and released baclofen were determined at zero time and 60 minutes using LC/MS/MS.

Caco-2 cells = settings: human, Caco-2, 200 uM
Experimental: (§3) For example, cellular permeability may be evaluated by examining the flux of a prodrug across a cultured polarized cell monolayer (e.g., Caco-2 cells). Caco-2 cells obtained from continuous culture (passage less than 28) were seeded at high density onto Transwell polycarbonate filters. Cells were maintained with DMEM / 10% fetal calf serum + 0.1 mM nonessential amino acids + 2 mM L-Gln, 5% CO2/ / 95% O2, 37°C until the day of the experiment. Permeability studies were conducted at pH 6.5 apically (in 50 mM MES buffer containing 1 mM CaCl2, 1mM MgCl2, 150 mM NaCl, 3 mM KCl, 1 mM NaH2PO4, 5 mM glucose) and pH 7.4 basolaterally (in Hanks' balanced salt solution containing 10 mM HEPES) in the presence of efflux pump inhibitors (250 µM MK-571, 250 µM Verapamil, 1 mM Ofloxacin). Inserts were placed in 12 or 24 well plates containing buffer and incubated for 30 min at 37C°. Prodrug (200 µM) was added to the apical or basolateral compartment (donor) and concentrations of prodrug and/or released parent drug in the opposite compartment (receiver) were determined at intervals over 1 hour using LC/MS/MS. Values of apparent permeability (Papp) were calculated using the equation: Papp = Vr (dC/dt)//(ACo) [formula]
(§4) Here Vr is the volume of the receiver compartment in mL; dC/dt is the total flux ofprodrug and parent drug (µM/s), determined from the slope of the plot of concentration in the receiver compartment versus time; Co is the initial concentration of prodrug in µM; A is the surface area of the membrane in cm^2.

Pancreatin stability = type: in vitro ADME, porcine; settings: pig; for metabolised at 1 h, 5 µM: pH 7.5, 1 % (w/v) pancreatin, read-out: % of Baclofen Released; for remaining at 1 h, 5 µM: read-out: % of Prodrug Remaining
Experimental: as §1

physchem = settings: aqueous buffer
Experimental: (§5) The stabilities of prodrugs were evaluated in one or more in vitro systems using a variety of tissue preparations following methods known in the art. The chemical stability of prodrugs in aqueous buffers at pH's of 2.0, 7.4 and 8.0 were also measured. […] Each preparation was incubated with test compound at 37°C for one hour. Aliquots (50 µL) were removed at 0, 30, and 60 min and quenched with 0.1 % trifluoroacetic acid in acetonitrile.

in vitro [6] = settings: rat, plasma
Experimental: as §5

in vitro [7] = settings: human, plasma
Experimental: as §5

in vitro [8] = settings: rat
Experimental: as §5

in vitro [9] = settings: human
Experimental: as §5

in vitro [10] = settings: human; remark: listed apart in the source
Experimental: as §2

in vitro [11] = settings: human, Caco-2
Experimental: as §3, §4

[12] = pancreatin, 5 µM, pH 7.5, 37 °C, after 60 min
[13] = 1 % (w/v) pancreatin, 5 µM, pH 7.5, 37 °C, after 60 min
[14] = liver s9, % of Prodrug Remaining
[15] = Rat Plasma, 2.0 µM, 37°C, after 60 min, 60 min
[16] = Human Plasma, 2.0 µM, 37°C, after 60 min, 60 min
[17] = Rat Liver S9 (0.5 mg/mL), 2.0 µM, NADPH, 37°C, after 60 min, 60 min
[18] = Human Liver S9 (0.5 mg/mL), 2.0 µM, NADPH, 37°C, after 60 min, 60 min
[19] = Caco-2 S9 (0.5 mg protein per mL), 37°C, after 60 min, 60 min

## O=C([O-])C[C@@H](CNC(=O)OCOC(=O)c1ccccc1)c1ccc(Cl)cc1.[Na+] [(12), Sodium 4-[(Benzoyloxymethoxy)carbonylamino]-(3R)-(4-chlorophenyl)-butanoate]
Pancreatin
  % of Baclofen Released: 77%
  % of Prodrug Remaining: 15%
Aqueous buffer, 1 h, pH 2
  % of Baclofen Released: 0%
  % of Prodrug Remaining: 100%
Aqueous buffer, 1 h, pH 7.4
  % of Baclofen Released: 0%
  % of Prodrug Remaining: 100%
Aqueous buffer, 1 h, pH 8
  % of Baclofen Released: 0%
  % of Prodrug Remaining: 105%
[1]; rat, plasma, 1 h, 2 µM
  % of Baclofen Released: 14%
  % of Prodrug Remaining: 72%
[2]; human, plasma, 1 h, 2 µM
  % of Baclofen Released: 5%
  % of Prodrug Remaining: 95%
[3]; rat, s9, 1 h, 2 µM
  % of Baclofen Released: 100%
  % of Prodrug Remaining: 3%
[4]; human, s9, 1 h, 2 µM
  % of Baclofen Released: 100%
  % of Prodrug Remaining: 1%
[5]; human, s9, 1 h
  % of Baclofen Released: 100%
  % of Prodrug Remaining: 2%
Caco-2 cells
  Ratio A-BB-A: 5.9

## CCCC(=O)OCOC(=O)NC[C@H](CC(=O)O)c1ccc(Cl)cc1 [(16), Sodium 4-[(Butanoyloxymethoxy)carbonylamino]-(3R)-(4-chlorophenyl)-butanoate]
Pancreatin stability; [12]
  metabolised at 1 h, 5 µM: 84%
Pancreatin stability; [13]
  remaining at 1 h, 5 µM: 1%
physchem; pH 2
  degraded at 1 h: 0%
physchem; pH 7.4
  degraded at 1 h: 0%
physchem; pH 8
  degraded at 1 h: 0%
In vitro [6]
  metabolised at 1 h, 2 µM: 40%
In vitro [7]
  metabolised at 1 h, 2 µM: 20%
In vitro [8]; s9
  metabolised at 1 h, 2 µM: 100%
In vitro [9]; s9
  metabolised at 1 h, 2 µM: 100%
In vitro [10]; s9
  metabolised at 1 h, 5 µM: 100%
In vitro [11]
  Papp A→B at 200 µM: 6.1 ×10⁻⁶ cm/s
  Papp B→A at 200 µM: 1.2 ×10⁻⁶ cm/s

## CC(C)C(=O)OCOC(=O)NC[C@H](CC(=O)O)c1ccc(Cl)cc1 [(18), Sodium 4-[(Isobutanoyloxymethoxy)carbonylamino]-(3R)-(4-chlorophenyl)-butanoate]
Pancreatin stability; [12]
  metabolised at 1 h, 5 µM: 91%
Pancreatin stability; [13]
  remaining at 1 h, 5 µM: 2%
physchem; pH 2
  degraded at 1 h: 0%
physchem; pH 7.4
  degraded at 1 h: 0%
physchem; pH 8
  degraded at 1 h: 0%
In vitro [6]
  metabolised at 1 h, 2 µM: 60%
In vitro [7]
  metabolised at 1 h, 2 µM: 27%
In vitro [8]; s9
  metabolised at 1 h, 2 µM: 100%
In vitro [9]; s9
  metabolised at 1 h, 2 µM: 100%
In vitro [10]; s9
  metabolised at 1 h, 5 µM: 100%
In vitro [11]
  Papp A→B at 200 µM: 6.4 ×10⁻⁶ cm/s
  Papp B→A at 200 µM: 5.6 ×10⁻⁶ cm/s

## CC(C)(C)C(=O)OCOC(=O)NC[C@H](CC(=O)[O-])c1ccc(Cl)cc1.[Na+] [(20), Sodium 4-[(Pivaloyloxymethoxy)carbonylamino]-(3R)-(4-chlorophenyl)-butanoate]
Pancreatin
  % of Baclofen Released: 36%
  % of Prodrug Remaining: 58%
Aqueous buffer, 1 h, pH 2
  % of Baclofen Released: 0%
  % of Prodrug Remaining: 100%
Aqueous buffer, 1 h, pH 7.4
  % of Baclofen Released: 0%
  % of Prodrug Remaining: 100%
Aqueous buffer, 1 h, pH 8
  % of Baclofen Released: 0%
  % of Prodrug Remaining: 103%
[1]; rat, plasma, 1 h, 2 µM
  % of Baclofen Released: 8%
  % of Prodrug Remaining: 92%
[2]; human, plasma, 1 h, 2 µM
  % of Baclofen Released: 9%
  % of Prodrug Remaining: 82%
[3]; rat, s9, 1 h, 2 µM
  % of Baclofen Released: 75%
  % of Prodrug Remaining: 25%
[4]; human, s9, 1 h, 2 µM
  % of Baclofen Released: 100%
  % of Prodrug Remaining: 1%
[5]; human, s9, 1 h
  % of Baclofen Released: 100%
  % of Prodrug Remaining: 1%
Caco-2 cells
  Ratio A-BB-A: 11.8

## CC(=O)OC(C)OC(=O)NC[C@H](CC(=O)O)c1ccc(Cl)cc1 (stereo partly drawn) [(30), Sodium 4-[(1-Acetoxyethoy)carbonylamino]-(3R)-(4-chlorophenyl)-butanoate]
Pancreatin stability; [12]
  metabolised at 1 h, 5 µM: 9%
Pancreatin stability; [13]
  remaining at 1 h, 5 µM: 90%
physchem; pH 2
  degraded at 1 h: 0%
physchem; pH 7.4
  degraded at 1 h: 1%
physchem; pH 8
  degraded at 1 h: 3%
In vitro [6]
  metabolised at 1 h, 2 µM: 42%
In vitro [7]
  metabolised at 1 h, 2 µM: 8%
In vitro [8]; s9
  metabolised at 1 h, 2 µM: 85%
In vitro [9]; s9
  metabolised at 1 h, 2 µM: 87%
In vitro [10]; s9
  metabolised at 1 h, 5 µM: 70%
In vitro [11]
  Papp A→B at 200 µM: 8.7 ×10⁻⁶ cm/s
  Papp B→A at 200 µM: 2.3 ×10⁻⁶ cm/s

## CCOC(C)(OCC)C(=O)OCOC(=O)NC[C@H](CC(=O)[O-])c1ccc(Cl)cc1.[Na+] [(51), Sodium 4-[(2,2-Diethoxypropanoyloxymethoxy)carbonylamino]-(3R)-(4-chlorophenyl)-butanoate]
Pancreatin
  % of Baclofen Released: 50%
  % of Prodrug Remaining: 44%
Aqueous buffer, 1 h, pH 2
  % of Baclofen Released: 0%
  % of Prodrug Remaining: 100%
Aqueous buffer, 1 h, pH 7.4
  % of Baclofen Released: 2%
  % of Prodrug Remaining: 97%
Aqueous buffer, 1 h, pH 8
  % of Baclofen Released: 9%
  % of Prodrug Remaining: 91%
[1]; rat, plasma, 1 h, 2 µM
  % of Baclofen Released: 72%
  % of Prodrug Remaining: 31%
[2]; human, plasma, 1 h, 2 µM
  % of Baclofen Released: 50%
  % of Prodrug Remaining: 53%
[3]; rat, s9, 1 h, 2 µM
  % of Baclofen Released: 103%
  % of Prodrug Remaining: 2%
[4]; human, s9, 1 h, 2 µM
  % of Baclofen Released: 91%
  % of Prodrug Remaining: 6%
[5]; human, s9, 1 h
  % of Baclofen Released: 100%
  % of Prodrug Remaining: 3%
Caco-2 cells
  Ratio A-BB-A: 3.0

## CCCC(=O)O[C@H](CCC)OC(=O)NC[C@H](CC(=O)O)c1ccc(Cl)cc1 [(86), Sodium 4-{[(1S)-Butanoyloybutoxy]carbonylamino}-(3R)-(4-chlorophenyl)-butanoate]
Pancreatin stability; [12]
  metabolised at 1 h, 5 µM: 76%
Pancreatin stability; [13]
  remaining at 1 h, 5 µM: 4%
physchem; pH 2, % of Baclofen Released
  degraded at 1 h: 0%
physchem; pH 7.4, % of Baclofen Released
  degraded at 1 h: 1%
physchem; pH 8, % of Baclofen Released
  degraded at 1 h: 2%
In vitro [6]
  metabolised at 1 h, 2 µM: 83%
In vitro [7]; % of Baclofen Released
  metabolised at 1 h, 2 µM: 13%
In vitro [8]; liver s9
  metabolised at 1 h, 2 µM: 92%
In vitro [8]; [14]
  remaining at 1 h, 2 µM: 2%
In vitro [9]; liver s9
  metabolised at 1 h, 2 µM: 87%
In vitro [9]; [14]
  remaining at 1 h, 2 µM: 2%
In vitro [10]; caco-2 homogenate s9
  metabolised at 1 h, 5 µM: 95%

## CC(C)C(=O)O[C@@H](OC(=O)NC[C@H](CC(=O)O)c1ccc(Cl)cc1)C(C)C [(104), 4-{[(1S)-Isobutanoyloxyisobutoxy]carbonylamino}-(3R)-(4-chlorophenyl) -butanoic Acid]
Pancreatin stability; pancreatin, pH 7.5
  remaining at 1 h, 5 µM: 90%
Aqueous buffer pH 7.4, 37°C, after 60 min, 60 min
  % of Prodrug Remaining: 100%
Aqueous buffer pH 8.0, 37°C, after 60 min, 60 min
  % of Baclofen Released: 0%
Aqueous buffer, pH 2, 60 min
  % of Prodrug Remaining: 100/0%
Aqueous buffer, pH 8, 60 min
  % of Prodrug Remaining: 100/0%
[1]; [15]
  % of Baclofen Released: 85%
  % of Prodrug Remaining: 14%
[2]; [16]
  % of Baclofen Released: 2%
  % of Prodrug Remaining: 98%
[3]; [17]
  % of Baclofen Released: 97%
  % of Prodrug Remaining: 3%
[4]; [18]
  % of Baclofen Released: 97%
  % of Prodrug Remaining: 3%
[5]; [19]
  % of Baclofen Released: 83%
  % of Prodrug Remaining: 17%
physchem; pH 2, % of Baclofen Released
  degraded at 1 h: 0%
physchem; pH 7.4, % of Baclofen Released
  degraded at 1 h: 0%
